Key:
[1] = target: T1, CaV2.2 currents in rat DRG neurons (Rattus norvegicus, UniProt Q02294); experiment: whole cell patch-clamp, CaV2.2 currents in rat DRG neurons; assay type: cell-based; conditions: 50 μM acute
T1 construct: from tissue; host or cells: dissociated dorsal root ganglion neurons (L4-L6) of young adult Sprague Dawley rats
Procedure: The whole cell patch-clamp technique was used to record CaV2.2 currents in HEK-CaV2.2 cells and rat DRG neurons. HEK293 cells that stably expressed rat N-type CaV2.2α1B, rat CaVβ3, and rat […] were utilized. Cells were grown in Dulbecco's modified Eagle's medium (DMEM) supplemented with 10% FBS, 50 units penicillin, 50 μg/ml streptomycin, 5 μg/ml blasticidin, 5 μg/ml hydromycin and 25 μg/ml zeozin at 37° C. in a humidified atmosphere of 95% air and 5% CO2. For patch clamp experiments, HEK-CaV2.2 cells were plated on glass coverslips and were cultured for 24-48 h. All animal procedures were performed in accordance to the NIH guide and were approved by the Indiana University School of Medicine Institutional Animal Care and Use Committee. Young adult Sprague Dawley rats were anesthetized (3% isoflurane) and then decapitated. The spinal column was removed, cut open, and dorsal root ganglia were harvested from the Lumbar L4-L6 vertebral levels. The ganglia were incubated in DMEM containing collagenase (1 mg/ml, Worthington: LS04194) and protease (1 mg/ml, Worthington: LS02104) for 30-60 minutes, and DRG neurons were dissociated by triturating in DMEM supplemented with 10% FBS. […]

[2] = tested on: T2, CaV2.2 channels in HEK-CaV2.2 cells (Rattus norvegicus); experiment: whole cell patch-clamp, CaV2.2 currents in HEK-CaV2.2 cells; assay type: cell-based
T2 construct: expressed in transfected cells
Procedure: The G-V curves are shown.
HEK-CaV2.2 cells were pretreated with various concentrations of compound 14 for 48 hours. CaV2.2 currents were acquired during 20-ms depolarizing pulses, and the current densities were calculated as a ratio of the peak current amplitude and each cell capacitance (0.1 μM, n=6; 1 μM, n=7; 10 μM, n=8; 50 μM, n=12). The line is the fit of the data to the four-parameter logistic function.
EK-CaV2.2 cells were pretreated with the indicated compounds for 48 hours. *** corresponds to […].
FIGS. 8 and 9 show the effects of 2 and 14 on the voltage dependence of activation of CaV2.2 channels in HEK-CaV2.2 cells pretreated with the vehicle or the indicated compounds for 48 hours. […] The gray vertical lines are the error bars (S.E.M.).
FIGS. 10 and 11 show acute effects of DMSO and 14 on the voltage dependence of activation of CaV2.2 channels in HEK-CaV2.2 cells. […] The gray vertical lines are the error bars (S.E.M.). “ns”—stands for not significant.
The whole cell patch-clamp technique was used to record CaV2.2 currents in HEK-CaV2.2 cells and rat DRG neurons. HEK293 cells that stably expressed rat N-type CaV2.2α1B, rat CaVβ3, and rat […] were utilized. Cells were grown in Dulbecco's modified Eagle's medium (DMEM) supplemented with 10% FBS, 50 units penicillin, 50 μg/ml streptomycin, 5 μg/ml blasticidin, 5 μg/ml hydromycin and 25 μg/ml zeozin at 37° C. in a humidified atmosphere of 95% air and 5% CO2. For patch clamp experiments, HEK-CaV2.2 cells were plated on glass coverslips and were cultured for 24-48 h. All animal procedures were performed in accordance to the NIH guide and were approved by the Indiana University School of Medicine Institutional Animal Care and Use Committee. Young adult Sprague Dawley rats were anesthetized (3% isoflurane) and then decapitated. The spinal column was removed, cut open, and dorsal root ganglia were harvested from the Lumbar L4-L6 vertebral levels. The ganglia were incubated in DMEM containing collagenase (1 mg/ml, Worthington: LS04194) and protease (1 mg/ml, Worthington: LS02104) for 30-60 minutes, and DRG neurons were dissociated by triturating in DMEM supplemented with 10% FBS. The isolated DRG neurons were plated on glass coverslips coated with growth factor reduced Matrigel (Thermo Fisher Scientific, Waltham, MA) and were cultured in Eagle's minimum essential medium (Invitrogen, CA) supplemented with 0.2% BSA and 20 ng/ml NGF-2.5S (BD Biosciences, Bedford, MA) at 37° C. in a water-jacketed 5% CO2 incubator overnight for the patch-clamp experiments.

CaVβ3 = target: T3, CaVβ3 (Rattus norvegicus, UniProt P54287); experiment: label-free microscale thermophoresis (MST), direct binding; conditions: direct binding to CaVβ3, read-out: dissociation constant (Kd)
T3 construct: made in house; host or cells: E. coli BL21(DE3)
Procedure: Curve fitting analysis led to a dissociation constant of 3.6±1.1 μM.
(§1) The plasmid of pET28a-CaV2.2β3 subunit was transformed into competent E. Coli BL21(DE3) strain. Culture was grown in LB medium at 37° C. to an OD600 of approximately 0.6 and then induced with 0.5 mM IPTG at 16° C. for 16 h. Cells were collected by centrifugation and lysed by microfluidizer in lysis buffer (phosphate buffer, pH 7.6, 2 mM DTT). The His-CaVβ3 protein was purified at 4° C. using Ni-IMAC chromatography (His-Trap HP, GE Healthcare) and eluted with 500 mM imidazole in lysis buffer with a gradient method. After the fractions consisted of His-CaVβ3 was combined and concentrated, the protein was further purified using size exclusion chromatography (Superdex 200 pg, GE Healthcare) in PBS with 2 mM DTT.
Direct binding of compound 6 to CaVβ3 was confirmed with label-free microscale thermophoresis (MST).

CaVα1CaVβ3 interaction = target: T4, CaVα1CaVβ3 interaction (Rattus norvegicus, UniProt P54287); experiment: fluorescence polarization assay, inhibition constant; assay type: binding; conditions: fluorescence polarization assay
T4 construct: made in house; host or cells: E. coli BL21(DE3)
Procedure: as §1
(§2) Compound 6 forms a salt bridge interaction with Arg-307 through a benzoic acid moiety. […] Arg-307 was mutated to alanine.

[3] = tested on: tibial nerve injury (TNI) model of neuropathic pain; experiment: tibial nerve injury (TNI) model of neuropathic pain, von Frey withdrawal threshold; assay type: in vivo, rat; conditions: for withdrawal threshold to von Frey stimulation: 1 h, 28 days after TNI, before dosing 33.1±5.9, pre-surgery 68.7±3.7
Procedure: Pathogen-free, adult, female Sprague Dawley (weight at testing 150-200 g; Harlan-Sprague-Dawley, Indianapolis, IN) were housed in a climate-controlled room on a 12-hour light/dark cycle and were allowed to have food and water ad libitum. All procedures were approved by the Indiana University Animal Care and Use Committee and conformed to the guidelines of the National Institutes of Health (publication no. 80-23, 1966) for the use of laboratory animals. All behavioral experiments were conducted by experimenters blinded to the treatment conditions and compound identity. The experiments were replicated a minimum of 2 times with independent cohorts of animals.
For in vivo studies, the inventive compounds were freshly prepared saline (0.9%) on the day of the experiment. Morphine sulfate salt (Sigma-Aldrich, St. Louis, MO) was freshly prepared on the day of the experiment in saline. […]
The inventive compounds were assessed with the tibial nerve injury (TNI) model of neuropathic pain 28 days after surgery. Using isoflurane anesthesia (4% induction and 2% maintenance), the right sciatic nerve was isolated under aseptic surgical conditions by blunt dissection of the femoral biceps muscle and the tibial nerve was tightly ligated with 5-0 silk and transected distal to the ligation. Additional 2 to 3 mm of distal nerve stump was removed to prevent reinnervation by the proximal nerve. The overlying muscle and skin was then sutured in 2 separate layers. Sham-injured animals were subjected to all preceding procedures with the exception of ligation and transection. All animals were returned to the housing facility and allowed to survive for 28 d. Mechanical stimuli were applied with 7 filaments, each differing in the bending force delivered (10, 20, 40, 60, 80, 100, and 120 mN), and fitted with a flat tip and fixed diameter of 0.2 mm. The filaments were tested in the order of ascending force, with each filament delivered for 1 second. Withdrawal threshold was determined by sequentially increasing and analyzed with Hill equation was fitted to the function (Origin version 6.0; Microcal Software) relating the percentage of indentations eliciting a withdrawal to the force of indentation.

CaVβ3 Arg-307-Ala = target: T5, CaVβ3 Arg-307-Ala (Rattus norvegicus, UniProt P54287, R307A); experiment: site-directed mutagenesis: displacement of fluorescently-labeled CaVα1-AID bound to mutated CaVβ3; assay type: binding
T5 construct: His; made in house
Text: as §2

[4] = tested on: acute thermal nociception in the rat; experiment: acute thermal nociception in the rat (Hargreaves' plantar test); assay type: in vivo; conditions: for paw withdrawal latency (PWL), analgesic effect: rats, n=6 per group, FIG. 12
Procedure: Pathogen-free, adult, female Sprague Dawley (weight at testing 150-200 g; Harlan-Sprague-Dawley, Indianapolis, IN) were housed in a climate-controlled room on a 12-hour light/dark cycle and were allowed to have food and water ad libitum. All procedures were approved by the Indiana University Animal Care and Use Committee and conformed to the guidelines of the National Institutes of Health (publication no. 80-23, 1966) for the use of laboratory animals. All behavioral experiments were conducted by experimenters blinded to the treatment conditions and compound identity. The experiments were replicated a minimum of 2 times with independent cohorts of animals. For in vivo studies, the inventive compounds were freshly prepared saline (0.9%) on the day of the experiment. […] Louis, MO) was freshly prepared on the day of the experiment in saline. All drugs were dissolved in 1 mL solution and administered by intraperitoneal (i.p.) injections 1 h prior to all behavioral assays. To evaluate the PWT to thermal stimulation, the Hargreaves' plantar test apparatus (Ugo Basile, Varese, Italy) was used. Measurements of the withdrawal latency of the paw began after the rats were habituated to the testing environment (IR setting=70). The measurements were repeated four times, at 5 min intervals and the initial pair of measurements was not used. The averages of the three remaining pairs of measurements taken were employed as data. A model of behavioral sensitivity using thermal stimulus was used to determine the acute analgesic properties of the compounds of the present invention.

T2 sequence (P54287 whole entry): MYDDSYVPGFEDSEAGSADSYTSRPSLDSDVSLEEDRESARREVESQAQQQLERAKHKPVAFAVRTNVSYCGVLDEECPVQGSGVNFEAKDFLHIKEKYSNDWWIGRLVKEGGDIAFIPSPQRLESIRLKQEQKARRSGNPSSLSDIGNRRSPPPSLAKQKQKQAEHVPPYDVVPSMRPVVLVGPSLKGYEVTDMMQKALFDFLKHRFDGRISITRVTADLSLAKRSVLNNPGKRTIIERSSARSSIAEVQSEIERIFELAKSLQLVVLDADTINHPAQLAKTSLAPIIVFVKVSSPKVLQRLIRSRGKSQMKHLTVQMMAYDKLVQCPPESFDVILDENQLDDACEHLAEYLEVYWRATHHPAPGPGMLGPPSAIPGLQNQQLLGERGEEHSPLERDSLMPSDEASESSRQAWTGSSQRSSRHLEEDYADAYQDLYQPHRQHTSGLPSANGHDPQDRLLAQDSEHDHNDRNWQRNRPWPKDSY
T3 sequence (P54287 whole entry): as above
T4 sequence (P54287 whole entry): as above
T1 sequence (P54287 whole entry partner): as the sequence (P54287 whole entry) above
T1 sequence (Q02294 whole entry): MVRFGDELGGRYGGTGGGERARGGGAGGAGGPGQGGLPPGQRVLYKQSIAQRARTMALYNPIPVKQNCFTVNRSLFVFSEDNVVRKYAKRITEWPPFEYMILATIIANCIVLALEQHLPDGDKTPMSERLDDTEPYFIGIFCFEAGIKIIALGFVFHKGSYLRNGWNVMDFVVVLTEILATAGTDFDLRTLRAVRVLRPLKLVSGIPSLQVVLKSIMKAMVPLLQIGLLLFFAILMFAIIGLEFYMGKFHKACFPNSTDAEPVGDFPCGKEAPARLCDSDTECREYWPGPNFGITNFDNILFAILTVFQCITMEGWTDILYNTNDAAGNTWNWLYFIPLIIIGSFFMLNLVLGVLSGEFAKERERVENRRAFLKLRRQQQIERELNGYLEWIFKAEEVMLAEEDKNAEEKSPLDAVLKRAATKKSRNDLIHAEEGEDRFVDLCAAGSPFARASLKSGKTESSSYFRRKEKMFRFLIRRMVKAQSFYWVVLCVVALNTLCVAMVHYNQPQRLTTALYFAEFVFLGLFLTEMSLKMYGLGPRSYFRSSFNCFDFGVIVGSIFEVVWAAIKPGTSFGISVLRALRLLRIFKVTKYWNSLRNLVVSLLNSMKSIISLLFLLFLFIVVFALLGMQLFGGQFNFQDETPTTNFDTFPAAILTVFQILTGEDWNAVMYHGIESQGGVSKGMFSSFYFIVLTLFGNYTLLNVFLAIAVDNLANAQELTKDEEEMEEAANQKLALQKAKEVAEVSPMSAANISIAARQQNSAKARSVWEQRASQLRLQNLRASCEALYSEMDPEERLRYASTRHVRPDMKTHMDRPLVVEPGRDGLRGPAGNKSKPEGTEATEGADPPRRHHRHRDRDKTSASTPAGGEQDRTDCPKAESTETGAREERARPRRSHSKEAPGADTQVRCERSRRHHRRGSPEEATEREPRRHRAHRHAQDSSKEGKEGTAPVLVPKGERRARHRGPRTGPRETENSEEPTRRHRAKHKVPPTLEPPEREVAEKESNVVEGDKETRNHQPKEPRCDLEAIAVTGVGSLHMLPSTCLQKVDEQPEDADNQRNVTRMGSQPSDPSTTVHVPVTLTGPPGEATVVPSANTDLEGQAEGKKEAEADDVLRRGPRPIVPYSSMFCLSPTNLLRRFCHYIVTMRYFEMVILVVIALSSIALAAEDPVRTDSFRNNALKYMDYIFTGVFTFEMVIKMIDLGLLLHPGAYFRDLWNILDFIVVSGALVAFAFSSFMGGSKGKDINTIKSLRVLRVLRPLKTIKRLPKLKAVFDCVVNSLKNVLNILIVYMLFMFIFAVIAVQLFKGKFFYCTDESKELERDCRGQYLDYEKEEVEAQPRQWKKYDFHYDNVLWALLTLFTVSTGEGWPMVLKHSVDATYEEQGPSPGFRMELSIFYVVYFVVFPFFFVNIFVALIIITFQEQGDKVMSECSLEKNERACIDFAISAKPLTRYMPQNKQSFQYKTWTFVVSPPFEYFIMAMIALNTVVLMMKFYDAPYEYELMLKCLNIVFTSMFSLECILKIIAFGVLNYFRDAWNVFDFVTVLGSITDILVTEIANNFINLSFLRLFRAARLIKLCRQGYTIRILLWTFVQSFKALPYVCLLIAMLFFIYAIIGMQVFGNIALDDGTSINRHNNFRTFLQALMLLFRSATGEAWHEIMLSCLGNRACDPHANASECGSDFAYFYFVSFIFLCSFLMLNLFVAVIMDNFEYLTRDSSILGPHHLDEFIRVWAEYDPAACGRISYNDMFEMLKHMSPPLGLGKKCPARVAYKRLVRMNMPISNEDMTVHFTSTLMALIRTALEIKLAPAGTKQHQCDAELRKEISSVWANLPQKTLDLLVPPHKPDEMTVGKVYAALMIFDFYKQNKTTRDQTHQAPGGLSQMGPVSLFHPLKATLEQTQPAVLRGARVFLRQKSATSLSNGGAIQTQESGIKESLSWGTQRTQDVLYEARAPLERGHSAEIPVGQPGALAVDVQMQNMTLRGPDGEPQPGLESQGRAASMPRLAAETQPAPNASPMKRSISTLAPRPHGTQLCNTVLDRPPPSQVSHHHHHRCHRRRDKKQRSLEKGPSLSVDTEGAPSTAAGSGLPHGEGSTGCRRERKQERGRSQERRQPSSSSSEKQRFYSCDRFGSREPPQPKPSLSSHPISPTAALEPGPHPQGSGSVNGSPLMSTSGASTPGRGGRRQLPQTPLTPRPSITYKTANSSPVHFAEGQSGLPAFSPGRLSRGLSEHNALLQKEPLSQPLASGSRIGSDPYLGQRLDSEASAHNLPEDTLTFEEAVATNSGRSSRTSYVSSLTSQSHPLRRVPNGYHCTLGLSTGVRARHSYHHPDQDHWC
T5 sequence (P54287 whole entry R307A): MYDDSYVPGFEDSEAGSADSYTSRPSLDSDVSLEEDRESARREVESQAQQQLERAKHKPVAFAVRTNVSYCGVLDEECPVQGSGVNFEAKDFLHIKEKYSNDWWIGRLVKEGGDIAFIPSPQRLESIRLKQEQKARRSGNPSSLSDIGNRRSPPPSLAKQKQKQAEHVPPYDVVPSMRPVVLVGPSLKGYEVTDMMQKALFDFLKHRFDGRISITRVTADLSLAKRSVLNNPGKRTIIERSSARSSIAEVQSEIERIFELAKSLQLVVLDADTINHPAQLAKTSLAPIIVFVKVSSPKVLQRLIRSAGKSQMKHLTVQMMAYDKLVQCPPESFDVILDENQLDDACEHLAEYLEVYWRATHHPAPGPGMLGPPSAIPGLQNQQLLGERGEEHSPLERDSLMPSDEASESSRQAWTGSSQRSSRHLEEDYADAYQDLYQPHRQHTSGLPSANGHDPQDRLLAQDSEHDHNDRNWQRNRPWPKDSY

Compound	effect on CaV2.2 currents, acute application [1]	effect on CaV2.2 currents, acute application ([2]; 50 μM acute, HEK-CaV2.2 cells)	CaV2.2 current density ([2]; 50 μM, pretreated 48 hours, DMSO −98.0±12.5) [pA/pF]	mean half-activation potential ([2]; pretreated 48 hours (50 μM per FIG. 4), DMSO 6.7±0.6) [mV]	Kd (CaVβ3) [nM]	Ki (CaVα1CaVβ3 interaction) [nM]	effect on behavior (tactile hypersensitivity) ([3]; 1 mg/kg and 0.1 mg/kg, at 1 or 4 hours)	withdrawal threshold to von Frey stimulation ([3]; 10 mg/kg ip) [mN]	attenuation of tactile hypersensitivity at 4 h ([3]; 10 mg/kg ip, 4 h after administration)	duration of reversal of mechanical hypersensitivity ([3]; 10 mg/kg, 4 weeks after TNI)	inhibition of the protein-protein interaction with CaVβ3 Arg-307-Ala (displacement of fluorescently-labeled CaVα1-AID) (CaVβ3 Arg-307-Ala)	paw withdrawal latency (PWL), analgesic effect [4]	response latency to thermal stimulus ([4]; systemic administration, 1 or 10 mg/kg)	steady-state inactivation V0.5, inact ([2]; 50 μM, pretreated 48 hours) [mV]	density of CaV2.2 currents ([2]; 50 μM, pretreated 48 hours, depolarizing pulses to 0 mV from holding potential −80 mV, DMSO −74.8±7.0) [pA/pF]	mean half-activation potential V0.5, act ([2]; pretreated 48 hours, DMSO 8.7±1.1) [mV]	effect on CaV2.2 currents amplitudes ([2]; used acutely or as a long-term treatment, HEK-CaV2.2 cells)
COc1ccc(C2=NN(C(=O)c3cccc(C(=O)O)c3)C(c3cn(-c4ccccc4)nc3-c3ccc(C)cc3)C2)cc1 (stereo not shown) [Compound 6, 3-(5-(4-methoxyphenyl)-1′-phenyl-3′-(p-tolyl)-3,4-dihydro-1′H,2H-[3,4′-bipyrazole]-2-carbonyl)benzoic acid]	did not affect	did not affect	−28.7±5.0	9.4±1.2	3600 ± 1100	1400 ± 100	did not alter behavior	62.2±3.1	not at 4 h	limited to 1 h	does not inhibit	lack of analgesic effect	failed to elicit changes				
COc1ccc(C2=NN(C(=O)CCC(C)=O)C(c3cn(-c4ccccc4)nc3-c3ccc(C)cc3)C2)cc1 (stereo not shown) [Compound 2, 1-(5-(4-methoxyphenyl)-1′-phenyl-3′-(p-tolyl)-3,4-dihydro-1′H,2H-[3,4′-bipyrazol]-2-yl)pentane-1,4-dione]								32±2.6				lack of analgesic effect		−61.6±2.0	−79.2±8.2	8.5±1.4	did not affect

Source: patent US11999720B2, “Pyrazolylacylpyrazoline compounds and method for treating pain” (THE TRUSTEES OF INDIANA UNIVERSITY, priority 2018, dated 2024)
